Here are results for two compounds from patent US7842700B2, “Crystals of isopropyl ester of N-(2,6-dichlorobenzoyl)-4-[6-(methylamino)methyl-1-methyl-2,4-dioxo-1,4-dihydroquinazoline-3(2H)-yl]-L-phenylalanine hydrochloride, production method thereof and use thereof” (Ajinomoto Co., Inc., priority 2005, dated 2010).

Data set [1] deals with lymphocytes in the peripheral blood. Description: Activity to elevate the number of lymphocytes in the peripheral blood in a rat. The format is in vivo. To be noted: 30 mg/kg oral, male Wistar rats, 12 hours after administration, control = 100%. How it is done: Activity to Elevate the Number of Lymphocytes in the Peripheral Blood in a Rat
Therefore, the activity of the compound of the formula (I) to elevate the number of lymphocytes in the rat was examined.
The dosing solution was prepared by dissolving the compound of the formula (I) in dimethylsulfoxide, adding a mixed solution of polyethylene glycol 400: propylene glycol=1:1 thereto and turning it upside and down repeatedly. The final concentration of DMSO was adjusted to 2.5%.
The dosing solution of a test substance (30 mg/kg) was orally administered to male Wistar rats (6 to 8 weeks age) in the amount of 4 mL/kg. After the settled time points after the administration, the blood was drawn from the abdominal large vein under anesthesia and mixed in an EDTA-2K coated container for blood collection. Then, the number of lymphocytes in the peripheral blood was determined by an automated comprehensive hematology analyzer (SF-3000, Sysmex). The test was conducted in n=5, and the ratio (%) of the number of lymphocytes in the peripheral blood in a test substance-administered group to that in a vehicle-treated group (a control group) was calculated while the average value of the number of lymphocytes in the peripheral blood in a control group was determined to be 100%.

Data set [2] is described as follows: Preservation stability test. The format is physicochemical. The following applies: 4 weeks; 40° C./75% relative humidity opened, 60° C./opened, vs room temperature/closed control. As to the method: Preservation Stability Test
Crystal form Cl5, crystal form Br5 and crystal form A were preserved in the following condition, and then the amount of impurities in each sample was compared. However, the increase in the impurities by heating was not observed.
• 40° C./75% relative humidity—opened • 60° C./opened • Room temperature/closed (control)

Data set [3] can be described thus: Powder X-ray diffraction measurement under the control of relative humidity. Type of data set: physicochemical. The following applies: dry: 50° C. under reduced pressure; wet: 85% relative humidity. As to the method: Powder X-Ray Diffraction Measurement Under the Control of Relative Humidity
The powder X-ray diffraction of each of crystal form Cl5 and crystal form Mal2 was measured in the following condition, and the diffraction patterns between dry one and wet one were compared. However, there was no difference thereof in each crystal.
Drying condition (dry): measurement of a sample with drying it at 50° C. under reduced pressure
Humid condition (wet): measurement of a sample under 85% relative humidity
Powder diffractometer: RINT2100S by RIGAKU (and a temperature and humidity attachment for said diffractometer) Humidity generator: SRH-1R Shinei Co., Inc.

As to `CNCc1ccc2c(c1)c(=O)n(-c1ccc(C[C@H](NC(=O)c3c(Cl)cccc3Cl)C(=O)OC(C)C)cc1)c(=O)n2C` [compound of the formula (I), isopropyl ester of N-(2,6-dichlorobenzoyl)-4-[6-(methylamino)methyl-1-methyl-2,4-dioxo-1,4-dihydroquinazoline-3(2H)-yl]-L-phenylalanine], the “ratio (%) of the number of lymphocytes in the peripheral blood to that in a vehicle-treated group” value in data set [1] was no less than 150%.
As for `CNCc1ccc2c(c1)c(=O)n(-c1ccc(C[C@H](NC(=O)c3c(Cl)cccc3Cl)C(=O)OC(C)C)cc1)c(=O)n2C` [crystal form Cl5], the “increase in the impurities by heating” value in data set [2] was “not observed”. The “difference of powder X-ray diffraction patterns between dry and wet” value in data set [3] was “no difference”.
